From patent publication EP0500835B1, “A NOVEL QUINOLONE CARBOXYLIC ACID DERIVATIVE” (DAEWOONG PHARMACEUTICAL CO., LTD., priority 1990, dated 1992)
Where two headings read alike, the source gives them in different places.

Assays:
Assay type in all cases: cell-based
E. cloacae 1321E = assay: In vitro antibacterial activity, MIC by agar dilution method; details: Enterobacter cloacae, 1321E, read-out: In vitro Antibacterial Activity, MIC
Description: (§1) The typical examples of the present compounds were tested for antimicrobial activity in vitro against twenty strains of Gram-positive and Gram-negative microorganisms.
(§2) The minimum inhibitory concentrations were determined according to the agar dilution method recommended by Japan Society of Chemotherapy[Chemotherapy., 29, 76 (1981)].

S. typhimurium = assay: as above; details: Salmonella enterica, TYPHIMURIUM, read-out: In vitro Antibacterial Activity, MIC
Description: as §1, §2

E. cloacae P99 = assay: as above; details: Enterobacter cloacae, P99, read-out: In vitro Antibacterial Activity, MIC
Description: as §1, §2

E. coli O 55 = assay: as above; details: Escherichia coli, O55, read-out: In vitro Antibacterial Activity, MIC
Description: as §1, §2

K. aerogenes 1522E = assay: as above; details: Klebsiella aerogenes, 1522E, read-out: In vitro Antibacterial Activity, MIC
Description: as §1, §2

P. aeruginosa 1592E = assay: as above; details: Pseudomonas aeruginosa, 1592E, read-out: In vitro Antibacterial Activity, MIC
Description: as §1
(§3) The numerals in the table 1 show minimum inhibitory concentrations(MIC in µg/ml). The minimum inhibitory concentrations were determined according to the agar dilution method recommended by Japan Society of Chemotherapy[Chemotherapy., 29, 76 (1981)].

P. aeruginosa 1771M = assay: as above; details: Pseudomonas aeruginosa, read-out: In vitro Antibacterial Activity, MIC
Description: as §1, §3

S. faecium MD 86 = assay: as above; details: Enterococcus faecium
Description: as §1, §3

E. coli 1507E = assay: as above; details: Escherichia coli, read-out: In vitro Antibacterial Activity, MIC
Description: as §1, §3

S. aureus SG 511 = assay: as above; details: Staphylococcus aureus, SG511, read-out: In vitro Antibacterial Activity, MIC
Description: as §1, §3

S. pyogenes A 308 = assay: as above; details: Streptococcus pyogenes
Description: as §1, §3

E. coli TEM = assay: as above; details: Escherichia coli, read-out: In vitro Antibacterial Activity, MIC
Description: as §1, §3

E. coli DC 0 = assay: as above; details: Escherichia coli, DC0, read-out: In vitro Antibacterial Activity, MIC
Description: as §1, §3

S. pyogenes A 77 = assay: as above; details: Streptococcus pyogenes, A77, read-out: In vitro Antibacterial Activity, MIC
Description: as §1, §3

S. aureus 285 = assay: as above; details: Staphylococcus aureus, 285, read-out: In vitro Antibacterial Activity, MIC
Description: as §1, §3

S. aureus 503 = assay: as above; details: Staphylococcus aureus, 503, read-out: In vitro Antibacterial Activity, MIC
Description: as §1, §3

P. aeruginosa 1771 = assay: as above; details: Pseudomonas aeruginosa, 1771, read-out: In vitro Antibacterial Activity, MIC
Description: as §1, §3

K. oxytoca 1082E = assay: as above; details: Klebsiella oxytoca, read-out: In vitro Antibacterial Activity, MIC
Description: as §1, §3

P. aeruginosa 9027 = assay: as above
Description: as §1, §3

E. coli DC 2 = assay: as above; details: Escherichia coli
Description: as §1, §3

[1] = test system: Staphylococcus aureus 208E; assay: Antibacterial activity for MRSA; details: Staphylococcus aureus 208E (MRSA)
Description: (§4) The compound of example 2 was orally administered to determine the LD50 for a group of male mice. […] The antibacterial activity for MRSA(Methicillin Resistant Staphyloccocus Aureus) was tested by the compound of example 2.

[2] = test system: Staphylococcus aureus 714E; assay: Antibacterial activity for MRSA; details: Staphylococcus aureus 714E (MRSA)
Description: as §4

[3] = test system: Staphylococcus aureus 707E; assay: Antibacterial activity for MRSA; details: Staphylococcus aureus 707E (MRSA)
Description: as §4

[4] = test system: Staphylococcus aureus 690E; assay: Antibacterial activity for MRSA; details: Staphylococcus aureus 690E (MRSA)
Description: as §4

[5] = test system: Staphylococcus aureus 695E; assay: Antibacterial activity for MRSA; details: Staphylococcus aureus 695E (MRSA)
Description: as §4

[6] = test system: Staphylococcus aureus 708E; assay: Antibacterial activity for MRSA; details: Staphylococcus aureus 708E (MRSA)
Description: as §4

[7] = test system: Staphylococcus aureus 693E; assay: Antibacterial activity for MRSA; details: Staphylococcus aureus 693E (MRSA)
Description: as §4

[8] = test system: Staphylococcus aureus 88 E; assay: Antibacterial activity for MRSA; details: Staphylococcus aureus 88 E (MRSA)
Description: as §4

[9] = test system: Staphylococcus aureus 705E; assay: Antibacterial activity for MRSA; details: Staphylococcus aureus 705E (MRSA)
Description: as §4

[10] = test system: Staphylococcus aureus 256E; assay: Antibacterial activity for MRSA; details: Staphylococcus aureus 256E (MRSA)
Description: as §4

[11] = test system: Staphylococcus aureus 121E; assay: Antibacterial activity for MRSA; details: Staphylococcus aureus 121E (MRSA)
Description: as §4

[12] = test system: Staphylococcus aureus 706E; assay: Antibacterial activity for MRSA; details: Staphylococcus aureus 706E (MRSA)
Description: as §4

[13] = test system: Staphylococcus aureus 694E; assay: Antibacterial activity for MRSA; details: Staphylococcus aureus 694E (MRSA)
Description: as §4

[14] = test system: Staphylococcus aureus 697E; assay: Antibacterial activity for MRSA; details: Staphylococcus aureus 697E (MRSA)
Description: as §4

[15] = test system: Staphylococcus aureus 752E; assay: Antibacterial activity for MRSA; details: Staphylococcus aureus 752E (MRSA)
Description: as §4

[16] = test system: Staphylococcus aureus 703E; assay: Antibacterial activity for MRSA; details: Staphylococcus aureus 703E (MRSA)
Description: as §4

[17] = test system: Saphylococcus aureus 692E; assay: Antibacterial activity for MRSA; details: Saphylococcus aureus 692E (MRSA)
Description: as §4

[18] = test system: Staphylococcus aureus 701E; assay: Antibacterial activity for MRSA; details: Staphylococcus aureus 701E (MRSA)
Description: as §4

[19] = test system: Staphylococcus aureus 711E; assay: Antibacterial activity for MRSA; details: Staphylococcus aureus 711E (MRSA)
Description: as §4

CSCC1CCN(c2c(F)c(N)c3c(=O)c(C(=O)O)cn(C4CC4)c3c2F)C1 (stereo not drawn) [Example 9, 1-cyclopropyl-5-amino-6,8-difluoro-7-(3-methylthiomethylpyrrolidinyl)-1,4-dihydro-4-oxo-3-quinolinecarboxylic acid]
3.12 µg/mL: MIC (K. aerogenes 1522E) | MIC (P. aeruginosa 1592E) | MIC (E. coli DC 0) | MIC (P. aeruginosa 9027; Pseudomonas aeruginosa, 9027, read-out: In vitro Antibacterial Activity, MIC)
0.013 µg/mL: MIC (E. coli O 55)
0.049 µg/mL: MIC (E. cloacae 1321E) | MIC (S. typhimurium) | MIC (E. cloacae P99)
0.007 µg/mL: MIC (S. aureus 503)
0.195 µg/mL: MIC (S. pyogenes A 308; A308, read-out: In vitro Antibacterial Activity, MIC) | MIC (E. coli DC 2; DC2, read-out: In vitro Antibacterial Activity, MIC)
0.781 µg/mL: MIC (P. aeruginosa 1771M; 1771M)
1.2 µg/mL: MIC (S. faecium MD 86; MD86, read-out: In vitro Antibacterial Activity, MIC)
0.025 µg/mL: MIC (E. coli 1507E; 1507E) | MIC (E. coli TEM) | MIC (S. aureus 285)
0.391 µg/mL: MIC (S. pyogenes A 77)
0.004 µg/mL: MIC (S. aureus SG 511)
1.56 µg/mL: MIC (P. aeruginosa 1771) | MIC (K. oxytoca 1082E; 1082E)

O=C(O)c1cn(C2CC2)c2cc(N3CCNCC3)c(F)cc2c1=O [CIP, Ciprofloxacin, reference compound]
0.391 µg/mL: MIC (S. aureus 503) | Antibacterial Activity for MRSA [3] | Antibacterial Activity for MRSA [5] | Antibacterial Activity for MRSA [7] | Antibacterial Activity for MRSA [8] | Antibacterial Activity for MRSA [9] | Antibacterial Activity for MRSA [10] | Antibacterial Activity for MRSA [11] | Antibacterial Activity for MRSA [12] | Antibacterial Activity for MRSA [13] | Antibacterial Activity for MRSA [18]
0.195 µg/mL: MIC (P. aeruginosa 1592E) | MIC (S. aureus SG 511) | MIC (E. coli DC 0) | MIC (S. pyogenes A 77) | MIC (S. aureus 285) | MIC (P. aeruginosa 1771) | Antibacterial Activity for MRSA [1] | Antibacterial Activity for MRSA [2] | Antibacterial Activity for MRSA [4] | Antibacterial Activity for MRSA [14] | Antibacterial Activity for MRSA [15] | Antibacterial Activity for MRSA [16] | Antibacterial Activity for MRSA [17]
0.098 µg/mL: MIC (E. coli TEM; E. coli TEM, agar dilution method) | MIC (P. aeruginosa 9027; Pseudomonas aeruginosa, P. aeruginosa 9027, agar dilution method, read-out: In vitro Antibacterial Activity, MIC) | MIC (E. coli DC 2; DC2, E. coli DC 2, agar dilution method, read-out: In vitro Antibacterial Activity, MIC) | Antibacterial Activity for MRSA [6] | Antibacterial Activity for MRSA [19]
1.56 µg/mL: MIC (S. pyogenes A 308; A308, S. pyogenes A 308, agar dilution method, read-out: In vitro Antibacterial Activity, MIC)
0.002 µg/mL: MIC (K. oxytoca 1082E; K. oxytoca 1082E, agar dilution method)
0.049 µg/mL: MIC (P. aeruginosa 1771M; P. aeruginosa 1771M, agar dilution method) | MIC (E. coli 1507E; E. coli 1507E, agar dilution method)
0.781 µg/mL: MIC (S. faecium MD 86; MD86, S. faecium MD 86, agar dilution method, read-out: In vitro Antibacterial Activity, MIC)
